Values joined by “and” are separate entries in the source; they are usually repeats but may differ in a detail not shown here. Equal entries are not always repeated. Toxic doses and inconclusive results are not listed.

The text below walks through data of PubChem BioAssay AID256 (DTP/NCI, 2004).

In the test the test system is CD2F1 mice, L1210 leukemia ip, survival T/C. The test can be described thus: NCI In Vivo Anticancer Drug Screen. Data for tumor model L1210 Leukemia (intraperitoneal) in CD2F1 (CDF1) mice. To be noted: higher = longer survival. In a few lines: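 Antitumor effect is scored in animals hosting a serially transplanted tumor. Values compare compound-dosed animals against vehicle-only controls as a simple quotient.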

[1] abbreviates: endpoint: mean survival time, dose: 100.0 mg/kg/injection, schedule: Q01DX009 (ip), vehicle: saline with Tween-80.
[2] abbreviates: endpoint: mean survival time, dose: 200.0 mg/kg/injection, schedule: Q01DX009 (ip), vehicle: saline with Tween-80.
The mark [3] stands for this setting: endpoint: mean survival time, dose: 100.0 mg/kg/injection, schedule: Q04DX003 (ip), vehicle: saline.
The mark [4] stands for this setting: endpoint: mean survival time, dose: 100.0 mg/kg/injection, schedule: Q04DX003 (ip), vehicle: saline with Tween-80.
The mark [5] stands for this setting: endpoint: mean survival time, dose: 200.0 mg/kg/injection, schedule: Q04DX003 (ip), vehicle: saline with Tween-80.
The mark [6] stands for this setting: endpoint: mean survival time, dose: 400.0 mg/kg/injection, schedule: Q04DX003 (ip), vehicle: saline with Tween-80.
The mark [7] stands for this setting: endpoint: mean survival time, dose: 200.0 mg/kg/injection, schedule: Q04DX003 (ip), vehicle: saline.
[8] abbreviates: endpoint: mean survival time, dose: 400.0 mg/kg/injection, schedule: Q04DX003 (ip), vehicle: saline.
Setting [9] is: endpoint: mean survival time, dose: 25.0 mg/kg/injection, schedule: Q04DX003 (ip), vehicle: saline with Tween-80.
The mark [10] stands for this setting: endpoint: mean survival time, dose: 50.0 mg/kg/injection, schedule: Q04DX003 (ip), vehicle: saline with Tween-80.
Setting [11] is: endpoint: mean survival time, dose: 400.0 mg/kg/injection, schedule: Q01DX009 (ip), vehicle: saline with Tween-80.

Regarding `CC12CCC(=O)C=C1CCC1C2C(=O)CC2(C)C1CCC2(O)C(=O)Cn1c(=O)cc[nH]c1=O` (stereo not given), the T/C was 96 % of control (endpoint: mean survival time, dose: 12.5 mg/kg/injection, schedule: Q04DX003 (ip), vehicle: Klucel (hydroxypropylcellulose) (HPC)); 96 % of control (endpoint: mean survival time, dose: 25.0 mg/kg/injection, schedule: Q04DX003 (ip), vehicle: Klucel (hydroxypropylcellulose) (HPC)); 103 % of control (endpoint: mean survival time, dose: 50.0 mg/kg/injection, schedule: Q04DX003 (ip), vehicle: Klucel (hydroxypropylcellulose) (HPC)); 97 % of control (endpoint: mean survival time, dose: 100.0 mg/kg/injection, schedule: Q04DX003 (ip), vehicle: Klucel (hydroxypropylcellulose) (HPC)); 97 % of control (endpoint: mean survival time, dose: 200.0 mg/kg/injection, schedule: Q04DX003 (ip), vehicle: Klucel (hydroxypropylcellulose) (HPC)).
With `CCOC(=O)Nc1cc(F)c(F)cc1F`, the T/C reads like this: under setting [1], 98 % of control; under setting [2], 98 % of control.
Take `CCCCN(CCCC)CC(O)c1ccccc1` (stereo not given): the T/C (endpoint: mean survival time, dose: 100.0 mg/kg/injection, schedule: Q04DX002 (ip), vehicle: saline with Tween-80) was 88 % of control.
Consider `Cn1ncc2c1C(=O)c1nc(-c3ccccc3)c(-c3ccccc3)nc1C2=O`, for which the T/C (endpoint: mean survival time, dose: 50.0 mg/kg/injection, schedule: Q04DX003 (ip), vehicle: saline) was 98 % of control and the T/C under setting [3] was 92 % of control.
Take `Cc1ccc(CNc2cc(C)ccn2)cc1`: the T/C runs as follows: under setting [4], 100 % of control; under setting [5], 91 % of control.
Regarding `CN(C)c1ccc(N2C(N)=NC(N)=NC2(C)C)cc1`, the T/C by setting is: (endpoint: mean survival time, dose: 25.0 mg/kg/injection, schedule: Q01DX001 (ip), vehicle: saline) 101 % of control; (endpoint: mean survival time, dose: 50.0 mg/kg/injection, schedule: Q01DX001 (ip), vehicle: saline) 101 % of control; (endpoint: mean survival time, dose: 100.0 mg/kg/injection, schedule: Q01DX001 (ip), vehicle: saline) 98 % of control.
With `Cc1[nH]c(=O)c(C(=O)O)c(C)c1[N+](=O)[O-]`, the T/C is 96 % of control under setting [4], 94 % of control under setting [5] and 96 % of control under setting [6].
Take `CC1(C)N=C(N)N=C(N)N1c1ccc(OCCCNC(=O)Nc2cccc(S(=O)(=O)F)c2)c(Cl)c1`: the T/C (endpoint: mean survival time, dose: 100.0 mg/kg/injection, schedule: Q01DX009 (ip), vehicle: saline) was 116 % of control and the T/C (endpoint: mean survival time, dose: 200.0 mg/kg/injection, schedule: Q01DX009 (ip), vehicle: saline) was 92 % of control.
On to `O=S(=O)(O)c1ccc(/C2=c3\cc/c([n-]3)=C(\c3ccc(S(=O)(=O)O)cc3)c3ccc([n-]3)/C(c3ccc(S(=O)(=O)O)cc3)=c3/cc/c([n-]3)=C(\c3ccc(S(=O)(=O)O)cc3)c3ccc2[n-]3)cc1.[Co]`, for which the T/C is, setting by setting: (endpoint: mean survival time, dose: 50.0 mg/kg/injection, schedule: Q04DX002 (ip), vehicle: saline) 104 % of control; (endpoint: mean survival time, dose: 100.0 mg/kg/injection, schedule: Q04DX002 (ip), vehicle: saline) 101 % of control; (endpoint: mean survival time, dose: 200.0 mg/kg/injection, schedule: Q04DX002 (ip), vehicle: saline) 101 % of control.
Turning to `Nc1ccc(S(=O)(=O)F)c(Cl)c1`, the T/C was 97 % of control under setting [1]; 95 % of control under setting [3]; 100 % of control under setting [2]; 101 % of control under setting [7]; 95 % of control under setting [8].
In the case of `Nc1nc(N)c(CCCOc2ccc([N+](=O)[O-])cc2Cl)c(N)n1`, the T/C was 90 % of control (endpoint: mean survival time, dose: 100.0 mg/kg/injection, schedule: Q04DX002 (ip), vehicle: Klucel (hydroxypropylcellulose) (HPC)); 94 % of control (endpoint: mean survival time, dose: 200.0 mg/kg/injection, schedule: Q04DX002 (ip), vehicle: Klucel (hydroxypropylcellulose) (HPC)); 90 % of control (endpoint: mean survival time, dose: 400.0 mg/kg/injection, schedule: Q04DX002 (ip), vehicle: Klucel (hydroxypropylcellulose) (HPC)).
Turning to `CC(O)CNCCNc1ccc(NCCNCC(C)O)c2c1C(=O)c1c(O)ccc(O)c1C2=O` (stereo not given), the T/C is, setting by setting: (endpoint: mean survival time, dose: 0.25 mg/kg/injection, schedule: Q01DX005 (ip), vehicle: water) 123 % of control; (endpoint: mean survival time, dose: 0.5 mg/kg/injection, schedule: Q01DX005 (ip), vehicle: water) 123 % of control; (endpoint: mean survival time, dose: 8.0 mg/kg/injection, schedule: Q01DX005 (ip), vehicle: water) 165 % of control.
For the compound `O=C(NC(NC(=O)c1ccc(Cl)cc1)C(Cl)(Cl)Cl)c1ccc(Cl)cc1`, the T/C by setting is: under setting [9], 98 % of control; under setting [10], 88 % of control; under setting [4], 90 % of control.
As for `COc1cc(NCC(C)(O)CN2CCCC(C)C2C)c2ncccc2c1` (stereo not given), the T/C by setting is: (endpoint: mean survival time, dose: 3.12 mg/kg/injection, schedule: Q01DX009 (ip), vehicle: saline) 101 % of control; (endpoint: mean survival time, dose: 6.25 mg/kg/injection, schedule: Q01DX009 (ip), vehicle: saline) 101 % of control; (endpoint: mean survival time, dose: 12.5 mg/kg/injection, schedule: Q01DX009 (ip), vehicle: saline) 101 % of control; (endpoint: mean survival time, dose: 25.0 mg/kg/injection, schedule: Q01DX009 (ip), vehicle: saline) 103 % of control; (endpoint: mean survival time, dose: 50.0 mg/kg/injection, schedule: Q01DX009 (ip), vehicle: saline) 102 % of control.
`Nc1nc2c(nc(N3CCCC3)n2C2OC(CO)C(O)C2O)c(=O)[nH]1` (stereo not given): the T/C is, setting by setting: (endpoint: mean survival time, dose: 12.5 mg/kg/injection, schedule: Q01DX005 (ip), vehicle: distilled water + Tween-80) 100 % of control; (endpoint: mean survival time, dose: 25.0 mg/kg/injection, schedule: Q01DX005 (ip), vehicle: distilled water + Tween-80) 102 % of control; (endpoint: mean survival time, dose: 50.0 mg/kg/injection, schedule: Q01DX005 (ip), vehicle: distilled water + Tween-80) 98 % of control; (endpoint: mean survival time, dose: 100.0 mg/kg/injection, schedule: Q01DX005 (ip), vehicle: distilled water + Tween-80) 100 % of control; (endpoint: mean survival time, dose: 200.0 mg/kg/injection, schedule: Q01DX005 (ip), vehicle: distilled water + Tween-80) 100 % of control.
Regarding `CCC(C)C(=O)CN(C)c1ccccc1` (stereo not given), the T/C was 102 % of control under setting [3], 102 % of control under setting [7] and 100 % of control under setting [8].
Take `O=C1NCC1c1ccccc1` (stereo not given): the T/C by setting is: (endpoint: median survival time, dose: 25.0 mg/kg/injection, schedule: Q04DX003 (ip), vehicle: saline with Tween-80) 90 % of control; (endpoint: median survival time, dose: 50.0 mg/kg/injection, schedule: Q04DX003 (ip), vehicle: saline with Tween-80) 90 % of control; (endpoint: median survival time, dose: 100.0 mg/kg/injection, schedule: Q04DX003 (ip), vehicle: saline with Tween-80) 100 % of control; (endpoint: median survival time, dose: 200.0 mg/kg/injection, schedule: Q04DX003 (ip), vehicle: saline with Tween-80) 90 % of control.
Take `O=C(c1ccc([N+](=O)[O-])cc1)C(Br)C(Br)c1ccnc2ccccc12` (stereo not given): the T/C is, setting by setting: (endpoint: mean survival time, dose: 12.5 mg/kg/injection, schedule: Q04DX003 (ip), vehicle: saline with Tween-80) 92 % of control; under setting [9], 98 % of control; under setting [10], 95 % of control.
In the case of `O=C1CC(c2ccc([N+](=O)[O-])cc2)=Nc2ccccc2N1`, the T/C reads like this: under setting [1], 102 % of control; under setting [2], 101 % of control; under setting [11], 96 % of control.
Consider `CC12CCC3C(CC=C4CC(OC(=N)N)CCC43C)C1CCC2=O` (stereo not given), for which the T/C by setting is: (endpoint: mean survival time, dose: 75.0 mg/kg/injection, schedule: Q01DX001 (ip), vehicle: saline) 98 % of control; (endpoint: mean survival time, dose: 150.0 mg/kg/injection, schedule: Q01DX001 (ip), vehicle: saline) 101 % of control.
Take `CO[C@H]1[C@H](O)[C@H](O[C@H]2CC[C@@]3(C)[C@H](CC[C@@H]4[C@@H]3CC[C@]3(C)[C@@H](C5=CC(=O)OC5)CC[C@]43O)C2)O[C@@H](C)[C@@H]1O`: the T/C is, setting by setting: (endpoint: mean survival time, dose: 0.5 mg/kg/injection, schedule: Q01DX001 (ip), vehicle: saline) 105 % of control; (endpoint: mean survival time, dose: 1.0 mg/kg/injection, schedule: Q01DX001 (ip), vehicle: saline) 105 % of control; (endpoint: mean survival time, dose: 2.0 mg/kg/injection, schedule: Q01DX001 (ip), vehicle: saline) 108 % of control; (endpoint: mean survival time, dose: 4.0 mg/kg/injection, schedule: Q01DX001 (ip), vehicle: saline) 109 % of control.
With `BrC1CC(Br)c2c1c1c(c3c2C(Br)CC3Br)C(Br)CC1Br` (stereo not given), the T/C is 100 % of control and 105 % of control (endpoint: mean survival time, dose: 12.5 mg/kg/injection, schedule: Q01DX009 (ip), vehicle: saline with Tween-80); 102 % of control and 104 % of control (endpoint: mean survival time, dose: 25.0 mg/kg/injection, schedule: Q01DX009 (ip), vehicle: saline with Tween-80); 104 % of control and 105 % of control (endpoint: mean survival time, dose: 50.0 mg/kg/injection, schedule: Q01DX009 (ip), vehicle: saline with Tween-80); 97 % of control and 108 % of control under setting [1]; 114 % of control and 105 % of control under setting [2]; 104 % of control and 105 % of control under setting [11].
With `CCCSCC(C)C`, the T/C is, setting by setting: under setting [4], 102 % of control; under setting [5], 93 % of control; under setting [6], 108 % of control.
